{"source": "patent US5182378A", "about": "“Sulfate derivatives of galactan extracted from Klebsiella” (Roussel Uclaf, priority 1989, dated 1993)", "key": {"[1]": {"system": "HIV virus (MT4 cells)", "assay": "MT4 / MTT test (inhibition of the infection of MT4 cells)", "format": "cell-based", "settings": "7 days at 37° C., MTT reading", "protocol": "technique: 100 microliter dilutions of the virus in series in a microtitration plate addition of 100 microliters of cellular suspension containing 5×10^4 MT4 cells culture 7 days at 37° C., 5% CO2 addition of MTT (tetrazolium salt viability coloring agent) incubation 4 hours at 37° C. halting the reaction by the addition of a hydrochloric acid solution in isopropane reading of the optical density (OD) at 540 nm (after dissolution of the crystals).\nMT4 cells at 10^6 cells/ml were used and dilution to 1/2 took place with or without the studied product at different concentrations. 100 microliters of HIV virus at different dilutions and 100 microliters of pre-treated cell suspension were introduced onto a microtitration plate. Incubation took place at 37° C. for 7 days and the MTT was added and a reading was taken with a spectrophotometer. The percentage inhibition of the infection of MT4 cells was determined and the results are shown hereafter: […]"}, "[2]": {"system": "HIV virus (H9 cells)", "assay": "H9 test (reverse transcriptase on supernatant and immunofluorescence on cells)", "format": "cell-based", "settings": "D+11; for Reverse Transcriptase % inhibition / Reverse Transcriptase cpm/cm^3 × 10^4: H9 cells supernatant; for Immunofluorescence % fluorescent cells / Immunofluorescence % inhibition: H9 cells", "protocol": "H9 cells were used which were treated with polybrene, washed, and taken up in 100 microliters of medium, with or without the studied product at different concentrations. After incubating for 2 hours at 37° C. 100 microliters of HIV virus at 1/10 were added and the mixture was kept for 1 hour at 37° C. and then washed. The cells were taken up in 1 ml of medium with or without the studied product, and distributed into 2 wells, 500 microliters per well and 2×10^5 cells by well. On D+4, 500 microliters of culture medium with or without the studied product were added. On D+8, half of the supernatant was replaced with new medium. On D+11, a quantitative analysis by reverse transcriptase was carried out on the supernatant and an immunofluorescent determination was carried out on the cells. The results are shown hereafter."}, "[3]": {"system": "syncitia formation in co-culture of H 9 III cells (chronically infected) with SUP T1 cells", "assay": "Inhibition of syncitia (co-culture of H 9 III cells with SUP T1 cells)", "format": "cell-based, HIV", "settings": "for Percentage of inhibition (syncitia), H 9 III cells: H 9 III cells pre-incubated with product one night at 37° C. before co-culture; for Percentage of inhibition (syncitia), Sup Ti cells: Sup Ti cells pre-incubated with product one night at 37° C. before co-culture; for Percentage of inhibition (syncitia), Test no. 1 / Percentage of inhibition (syncitia), Test no. 2: co-culture with product without previous incubation", "protocol": "The activity of the sulfate derivative of galactan extracted from Klebsiella was determined by measurement of the inhibition of syncitia [Gruters et al, Nature, Vol. 330, p. 74 to 77, (5 Nov. 1987)] and by determination of the protective activity exercised vis-a-vis certain cell cultures.\nA co-culture of H 9 III cells (chronically infected 10^5 cells/ml) with SUP T1 cells (non-infected: 2×10^5 cells/ml) was carried out and there was syncitia formation which was counted with a microscope. Each type of cell was pre-incubated or non-preincubated with the studied product for one night at 37° C. If there was no pre-incubation, the studied product was added to cells at the moment the culture was carried out. When there was inhibition of Syncitia formation in the treated cells relative to the control cells, the studied product was protective. The results obtained are shown hereafter."}}}
{"substance": "Sulfate derivative of the qalactan extracted from Klebsiella [Example 1]", "values": [{"measurement": "Percentage of inhibition of the infection of MT4 cells", "setting": "[1]; 1 micrograms/cm^3", "result": 74, "unit": "%"}, {"measurement": "Percentage of inhibition of the infection of MT4 cells", "setting": "[1]; 10 micrograms/cm^3", "result": 99, "unit": "%"}, {"measurement": "Percentage of inhibition of the infection of MT4 cells", "setting": "[1]; 100 micrograms/cm^3", "result": 84, "unit": "%"}, {"measurement": "Reverse Transcriptase % inhibition", "setting": "[2]; 1 micrograms/cm^3", "result": 76, "unit": "%"}, {"measurement": "Reverse Transcriptase cpm/cm^3 × 10^4", "setting": "[2]; 1 micrograms/cm^3", "result": 6.42, "unit": "cpm/cm^3 × 10^4"}, {"measurement": "Immunofluorescence % fluorescent cells", "setting": "[2]; 1 micrograms/cm^3", "result": 3, "unit": "%"}, {"measurement": "Immunofluorescence % inhibition", "setting": "[2]; 1 micrograms/cm^3", "result": 94, "unit": "%"}, {"measurement": "Reverse Transcriptase % inhibition", "setting": "[2]; 10 micrograms/cm^3", "result": 100, "unit": "%"}, {"measurement": "Reverse Transcriptase cpm/cm^3 × 10^4", "setting": "[2]; 10 micrograms/cm^3", "result": 1.16, "unit": "cpm/cm^3 × 10^4"}, {"measurement": "Immunofluorescence % fluorescent cells", "setting": "[2]; 10 micrograms/cm^3", "result": 0, "unit": "%"}, {"measurement": "Immunofluorescence % inhibition", "setting": "[2]; 10 micrograms/cm^3", "result": 100, "unit": "%"}, {"measurement": "Reverse Transcriptase % inhibition", "setting": "[2]; 100 micrograms/cm^3", "result": 100, "unit": "%"}, {"measurement": "Reverse Transcriptase cpm/cm^3 × 10^4", "setting": "[2]; 100 micrograms/cm^3", "result": 1.12, "unit": "cpm/cm^3 × 10^4"}, {"measurement": "Immunofluorescence % fluorescent cells", "setting": "[2]; 100 micrograms/cm^3", "result": 0, "unit": "%"}, {"measurement": "Immunofluorescence % inhibition", "setting": "[2]; 100 micrograms/cm^3", "result": 100, "unit": "%"}, {"measurement": "Percentage of inhibition (syncitia), H 9 III cells", "setting": "[3]; 1 micrograms/cm^3", "result": 17, "unit": "%"}, {"measurement": "Percentage of inhibition (syncitia), Sup Ti cells", "setting": "[3]; 1 micrograms/cm^3", "result": 23, "unit": "%"}, {"measurement": "Percentage of inhibition (syncitia), Test no. 1", "setting": "[3]; 1 micrograms/cm^3", "result": 0, "unit": "%"}, {"measurement": "Percentage of inhibition (syncitia), Test no. 2", "setting": "[3]; 1 micrograms/cm^3", "result": 10, "unit": "%"}, {"measurement": "Percentage of inhibition (syncitia), H 9 III cells", "setting": "[3]; 10 micrograms/cm^3", "result": 23, "unit": "%"}, {"measurement": "Percentage of inhibition (syncitia), Sup Ti cells", "setting": "[3]; 10 micrograms/cm^3", "result": 27, "unit": "%"}, {"measurement": "Percentage of inhibition (syncitia), Test no. 1", "setting": "[3]; 10 micrograms/cm^3", "result": 42, "unit": "%"}, {"measurement": "Percentage of inhibition (syncitia), Test no. 2", "setting": "[3]; 10 micrograms/cm^3", "result": 17, "unit": "%"}, {"measurement": "Percentage of inhibition (syncitia), H 9 III cells", "setting": "[3]; 100 micrograms/cm^3", "result": 100, "unit": "%"}, {"measurement": "Percentage of inhibition (syncitia), Sup Ti cells", "setting": "[3]; 100 micrograms/cm^3", "result": 100, "unit": "%"}, {"measurement": "Percentage of inhibition (syncitia), Test no. 1", "setting": "[3]; 100 micrograms/cm^3", "result": 100, "unit": "%"}, {"measurement": "Percentage of inhibition (syncitia), Test no. 2", "setting": "[3]; 100 micrograms/cm^3", "result": 100, "unit": "%"}]}
